Data reported in ChEMBL document CHEMBL1201861, “Genomics of Drug Sensitity in Cancer screening data, Wellcome Trust Sanger Institute”.

What was measured:
Format in all cases: functional, cell-based
[1] = tested on: CP50-MEL-B; test: cells; details: Homo sapiens;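 also: growth inhibition of the human cell line, measured with a cell viability read-out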
Description: SANGER: Inhibition of human CP50-MEL-B cell growth in a cell viability assay.

[2] = tested on: Ca-Ski; test: cells; details: Homo sapiens;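 also: cell viability assay measuring inhibition of Ca-Ski cell growth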
Description: SANGER: Inhibition of human Ca-Ski cell growth in a cell viability assay.

[3] = tested on: CaR-1; test: cells; details: Homo sapiens;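 also: growth inhibition of human CaR-1 cancer cells, read out with a cell viability assay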
Description: SANGER: Inhibition of human CaR-1 cell growth in a cell viability assay.

[4] = tested on: D-542MG; test: cells; details: Homo sapiens
Description: SANGER: Inhibition of human D-542MG cell growth in a cell viability assay.

[5] = tested on: Detroit 562; test: cells; details: Homo sapiens;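 also: growth inhibition of human Detroit 562 cells, read out by a cell viability assay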
Description: SANGER: Inhibition of human Detroit562 cell growth in a cell viability assay.

[6] = tested on: EB2; test: cells; details: Homo sapiens;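 also: growth inhibition of EB2 cells, read out with a cell viability assay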
Description: SANGER: Inhibition of human EB2 cell growth in a cell viability assay.

[7] = tested on: ECC4; test: cells; details: Homo sapiens;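 also: growth inhibition of ECC4 cells, read out with a cell viability assay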
Description: SANGER: Inhibition of human ECC4 cell growth in a cell viability assay.

[8] = tested on: EFM-19; test: cells; details: Homo sapiens;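 also: growth inhibition of human EFM-19 cells, measured in a cell viability assay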
Description: SANGER: Inhibition of human EFM-19 cell growth in a cell viability assay.

[9] = tested on: EGI-1; test: cells; details: Homo sapiens;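 also: cell viability readout used to gauge growth inhibition of EGI-1 cells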
Description: SANGER: Inhibition of human EGI-1 cell growth in a cell viability assay.

[10] = tested on: EHEB; test: cells; details: Homo sapiens;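 also: growth inhibition of human EHEB cells, read out with a cell viability assay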
Description: SANGER: Inhibition of human EHEB cell growth in a cell viability assay.

[11] = tested on: GDM-1; test: cells; details: Homo sapiens;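 also: cell viability readout used to measure growth inhibition of human GDM-1 cells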
Description: SANGER: Inhibition of human GDM-1 cell growth in a cell viability assay.

[12] = tested on: HPAF-II; test: cells; details: Homo sapiens;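 also: growth inhibition of HPAF-II cells, read out with a cell viability assay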
Description: SANGER: Inhibition of human HPAF-II cell growth in a cell viability assay.

[13] = tested on: HT-3; test: cells; details: Homo sapiens;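 also: growth inhibition measured with a cell viability readout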
Description: SANGER: Inhibition of human HT-3 cell growth in a cell viability assay.

[14] = tested on: IM-9; test: SANGER: Inhibition of human IM-9 cell growth in a cell viability assay.
[15] = tested on: JIYOYE; test: cells; details: Homo sapiens
Description: SANGER: Inhibition of human JiyoyeP-2003 cell growth in a cell viability assay.

[16] = tested on: K052; test: cells; details: Homo sapiens;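 also: Read-out from a cell viability assay, IC50 reflecting suppression of K052 cell growth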
Description: SANGER: Inhibition of human K052 cell growth in a cell viability assay.

[17] = tested on: KP-4; test: cells; details: Homo sapiens;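 also: human KP-4 cells, with growth inhibition read out through a cell viability assay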
Description: SANGER: Inhibition of human KP-4 cell growth in a cell viability assay.

[18] = tested on: KYSE-140; test: cells; details: Homo sapiens;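 also: cell viability assay measuring growth inhibition in human KYSE-140 cells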
Description: SANGER: Inhibition of human KYSE-140 cell growth in a cell viability assay.

[19] = tested on: KYSE-450; test: cells; details: Homo sapiens;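 also: cell growth inhibition measured by a viability assay in human KYSE-450 cells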
Description: SANGER: Inhibition of human KYSE-450 cell growth in a cell viability assay.

[20] = tested on: LC4-1; test: cells; details: Homo sapiens;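 also: growth inhibition of LC4-1 cells, read out with a cell viability assay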
Description: SANGER: Inhibition of human LC4-1 cell growth in a cell viability assay.

[21] = tested on: M059J; test: cells; details: Homo sapiens;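 also: growth inhibition of M059J cells, read out with a cell viability assay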
Description: SANGER: Inhibition of human M059J cell growth in a cell viability assay.

[22] = tested on: NB1; test: cells; details: Homo sapiens;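 also: reduction of NB1 cell proliferation, read out with a viability assay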
Description: SANGER: Inhibition of human NB1 cell growth in a cell viability assay.

[23] = tested on: NCI-H1963; test: cells; details: Homo sapiens;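 also: cell growth inhibition of the human line, determined with a cell viability assay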
Description: SANGER: Inhibition of human NCI-H1963 cell growth in a cell viability assay.

[24] = tested on: NCI-H1993; test: cells; details: Homo sapiens;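 also: growth inhibition of the cancer cell line, assessed with a cell viability assay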
Description: SANGER: Inhibition of human NCI-H1993 cell growth in a cell viability assay.

[25] = tested on: NCI-H2009; test: cells; details: Homo sapiens;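 also: cell viability assay measuring inhibition of NCI-H2009 cell growth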
Description: SANGER: Inhibition of human NCI-H2009 cell growth in a cell viability assay.

[26] = tested on: NCI-H2081; test: cells; details: Homo sapiens;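 also: growth inhibition of human NCI-H2081 cells, read out with a cell viability assay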
Description: SANGER: Inhibition of human NCI-H2081 cell growth in a cell viability assay.

[27] = tested on: NCI-H2347; test: cells; details: Homo sapiens;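 also: growth inhibition of the cell line, read out with a cell viability assay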
Description: SANGER: Inhibition of human NCI-H2347 cell growth in a cell viability assay.

[28] = tested on: NCI-H524; test: cells; details: Homo sapiens;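 also: growth inhibition of human NCI-H524 cells, read out through a cell viability assay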
Description: SANGER: Inhibition of human NCI-H524 cell growth in a cell viability assay.

[29] = tested on: NCI-H727; test: cells; details: Homo sapiens;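 also: growth inhibition of human NCI-H727 cells, read out with a cell viability assay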
Description: SANGER: Inhibition of human NCI-H727 cell growth in a cell viability assay.

[30] = tested on: NCI-H748; test: cells; details: Homo sapiens;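 also: growth inhibition of NCI-H748 cells, measured by a cell viability assay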
Description: SANGER: Inhibition of human NCI-H748 cell growth in a cell viability assay.

[31] = tested on: NCI-H889; test: cells; details: Homo sapiens;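 also: cell growth inhibition of the cell line, read out with a viability assay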
Description: SANGER: Inhibition of human NCI-H889 cell growth in a cell viability assay.

[32] = tested on: NCI-N87; test: cells; details: Homo sapiens;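 also: growth inhibition of human NCI-N87 cells, read out with a cell viability assay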
Description: SANGER: Inhibition of human NCI-N87 cell growth in a cell viability assay.

[33] = tested on: OVCAR-8; test: cells; details: Homo sapiens;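 also: growth inhibition of human OVCAR-8 cells, read out by a cell viability assay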
Description: SANGER: Inhibition of human OVCAR-8 cell growth in a cell viability assay.

[34] = tested on: P12-Ichikawa; test: cells; details: Homo sapiens
[35] = tested on: PF-382; test: cells; details: Homo sapiens
Description: SANGER: Inhibition of human PF-382 cell growth in a cell viability assay.

[36] = tested on: RERF-LC-MS; test: cells; details: Homo sapiens;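 also: growth inhibition of human RERF-LC-MS cells, read out by a cell viability assay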
Description: SANGER: Inhibition of human RERF-LC-MS cell growth in a cell viability assay.

[37] = tested on: RMG-I; test: cells; details: Homo sapiens;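 also: growth inhibition of human RMG-I cells, read out with a cell viability assay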
Description: SANGER: Inhibition of human RMG-I cell growth in a cell viability assay.

[38] = tested on: RPMI-6666; test: cells; details: Homo sapiens
Description: SANGER: Inhibition of human RPMI-6666 cell growth in a cell viability assay.

[39] = tested on: RPMI-7951; test: cells; details: Homo sapiens
Description: SANGER: Inhibition of human RPMI-7951 cell growth in a cell viability assay.

[40] = tested on: RVH-421; test: cells; details: Homo sapiens
Description: SANGER: Inhibition of human RVH-421 cell growth in a cell viability assay.

[41] = tested on: SK-MEL-24; test: cells; details: Homo sapiens;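 also: growth inhibition read out by a cell viability assay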
Description: SANGER: Inhibition of human SK-MEL-24 cell growth in a cell viability assay.

[42] = tested on: SK-N-AS; test: cells; details: Homo sapiens;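 also: growth inhibition of human SK-N-AS cells, measured with a cell viability assay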
Description: SANGER: Inhibition of human SK-N-AS cell growth in a cell viability assay.

[43] = tested on: SUP-T1; test: cells; details: Homo sapiens;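 also: growth inhibition of human SUP-T1 cells, read out as cell viability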
Description: SANGER: Inhibition of human SUP-T1 cell growth in a cell viability assay.

[44] = tested on: SW1463; test: cells; details: Homo sapiens;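 also: growth inhibition of SW1463 cells, determined with a cell viability assay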
Description: SANGER: Inhibition of human SW1463 cell growth in a cell viability assay.

[45] = tested on: SW948; test: cells; details: Homo sapiens;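 also: growth inhibition of SW948 cells, read out with a cell viability assay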
Description: SANGER: Inhibition of human SW948 cell growth in a cell viability assay.

[46] = tested on: T47D; test: cells; details: Homo sapiens;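 also: growth inhibition of human T47D cells, measured with a cell viability assay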
Description: SANGER: Inhibition of human T47D cell growth in a cell viability assay.

[47] = tested on: T84; test: cells; details: Homo sapiens;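 also: growth inhibition measured with a cell viability readout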
Description: SANGER: Inhibition of human T84 cell growth in a cell viability assay.

[48] = tested on: 769-P; test: cells; details: Homo sapiens
Description: SANGER: Inhibition of human 769-P cell growth in a cell viability assay.

[49] = tested on: AGS; test: cells; details: Homo sapiens;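 also: growth inhibition of AGS cells, determined with a cell viability assay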
Description: SANGER: Inhibition of human AGS cell growth in a cell viability assay.

[50] = tested on: AU565; test: cells; details: Homo sapiens;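 also: cell viability assay measuring growth inhibition of human AU565 cells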
Description: SANGER: Inhibition of human AU565 cell growth in a cell viability assay.

[51] = tested on: BC-3; test: cells; details: Homo sapiens;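 also: cell viability assay measuring growth inhibition of human BC-3 cells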
Description: SANGER: Inhibition of human BC-3 cell growth in a cell viability assay.

[52] = tested on: BFTC-909; test: cells; details: Homo sapiens
Description: SANGER: Inhibition of human BFTC-909 cell growth in a cell viability assay.

[53] = tested on: C32; test: cells; details: Homo sapiens;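 also: cell viability assay, with IC50 reflecting inhibition of C32 cell growth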
Description: SANGER: Inhibition of human C32 cell growth in a cell viability assay.

[54] = tested on: CAL-51; test: cells; details: Homo sapiens;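 also: human CAL-51 cell line, growth inhibition read out via a cell viability assay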
Description: SANGER: Inhibition of human CAL-51 cell growth in a cell viability assay.

[55] = tested on: CAL-85-1; test: cells; details: Homo sapiens;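 also: growth inhibition of human CAL-85-1 cells, read out with a cell viability assay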
Description: SANGER: Inhibition of human CAL-85-1 cell growth in a cell viability assay.

[56] = tested on: TGW; test: cells; details: Homo sapiens;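 also: growth inhibition of human TGW cells, read out with a cell viability assay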
Description: SANGER: Inhibition of human TGW cell growth in a cell viability assay.

[57] = tested on: THP-1; test: cells; details: Homo sapiens;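 also: growth inhibition of THP-1 cells, read out via a cell viability assay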
Description: SANGER: Inhibition of human THP-1 cell growth in a cell viability assay.

[58] = tested on: TYK-nu; test: cells; details: Homo sapiens;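 also: growth inhibition of human TYK-nu cells, read out by a cell viability assay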
Description: SANGER: Inhibition of human TYK-nu cell growth in a cell viability assay.

[59] = tested on: UO-31; test: cells; details: Homo sapiens
Description: SANGER: Inhibition of human U031 cell growth in a cell viability assay.

[60] = tested on: U-251; test: cells; details: Homo sapiens;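 also: growth inhibition of human U-251 cells, read out through a cell viability assay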
Description: SANGER: Inhibition of human U251 cell growth in a cell viability assay.

[61] = tested on: UACC-812; test: cells; details: Homo sapiens
Description: SANGER: Inhibition of human UACC-812 cell growth in a cell viability assay.

[62] = tested on: UACC-893; test: cells; details: Homo sapiens
Description: SANGER: Inhibition of human UACC-893 cell growth in a cell viability assay.

[63] = tested on: VMRC-RCZ; test: cells; details: Homo sapiens
Description: SANGER: Inhibition of human VMRC-RCZ cell growth in a cell viability assay.

[64] = tested on: WSU-NHL; test: cells; details: Homo sapiens;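 also: growth inhibition of human WSU-NHL cells, read out with a cell viability assay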
Description: SANGER: Inhibition of human WSU-NHL cell growth in a cell viability assay.

[65] = tested on: YAPC; test: cells; details: Homo sapiens
Description: SANGER: Inhibition of human YAPC cell growth in a cell viability assay.

[66] = tested on: COLO-679; test: cells; details: Homo sapiens
Description: SANGER: Inhibition of human COLO-679 cell growth in a cell viability assay.

Structure (SMILES): CCNC(=O)c1noc(-c2cc(C(C)C)c(O)cc2O)c1-c1ccc(CN2CCOCC2)cc1 [LUMINESPIB]
- IC50 [1]: 83.7 nM
- IC50 [2]: 37.8 nM
- IC50 [3]: > 256 nM
- IC50 [4]: 140 nM
- IC50 [5]: 38.7 nM
- IC50 [6]: 72.9 nM
- IC50 [7]: 199 nM
- IC50 [8]: > 256 nM
- IC50 [9]: 180 nM
- IC50 [10]: 25.6 nM
- IC50 [11]: 8.4 nM
- IC50 [12]: > 256 nM
- IC50 [13]: > 256 nM
- IC50 [14]: 235 nM
- IC50 [15]: 33.9 nM
- IC50 [16]: 171 nM
- IC50 [17]: 36.6 nM
- IC50 [18]: 20.2 nM
- IC50 [19]: 13.5 nM
- IC50 [20]: 115 nM
- IC50 [21]: 22.4 nM
- IC50 [22]: 144 nM
- IC50 [23]: 51.8 nM
- IC50 [24]: > 256 nM
- IC50 [25]: 27.6 nM
- IC50 [26]: 152 nM
- IC50 [27]: 80.3 nM
- IC50 [28]: > 0.256 µM
- IC50 [29]: 10.3 nM
- IC50 [30]: > 256 nM
- IC50 [31]: > 0.256 µM
- IC50 [32]: 78 nM
- IC50 [33]: 32.8 nM
- IC50 [34]: > 256 nM
- IC50 [35]: 48.3 nM
- IC50 [36]: 134 nM
- IC50 [37]: > 256 nM
- IC50 [38]: 8.52 nM
- IC50 [39]: 6.31 nM
- IC50 [40]: 19.6 nM
- IC50 [41]: 42.8 nM
- IC50 [42]: > 256 nM
- IC50 [43]: 67.6 nM
- IC50 [44]: > 0.256 µM
- IC50 [45]: > 0.256 µM
- IC50 [46]: > 256 nM
- IC50 [47]: 0.0133 µM
- IC50 [48]: 10.7 nM
- IC50 [49]: 10.6 nM
- IC50 [50]: 118 nM
- IC50 [51]: 30.2 nM
- IC50 [52]: 31.3 nM
- IC50 [53]: > 256 nM
- IC50 [54]: 3.25 nM
- IC50 [55]: 11.9 nM
- IC50 [56]: 165 nM
- IC50 [57]: 153 nM
- IC50 [58]: > 256 nM
- IC50 [59]: 47.7 nM
- IC50 [60]: 47.6 nM
- IC50 [61]: > 0.256 µM
- IC50 [62]: 59 nM
- IC50 [63]: 16.5 nM
- IC50 [64]: 73.3 nM
- IC50 [65]: > 0.256 µM
- IC50 [66]: 31.1 nM

Structure (SMILES): CC(C)=CC[C@@H](O)C1=CC(=O)c2c(O)ccc(O)c2C1=O [SHIKONIN]
- IC50 [1]: 1430 nM
- IC50 [2]: 650 nM
- IC50 [3]: 1310 nM
- IC50 [4]: 581 nM
- IC50 [5]: > 16000 nM
- IC50 [6]: 311 nM
- IC50 [7]: 1200 nM
- IC50 [8]: 212 nM
- IC50 [9]: 2510 nM
- IC50 [10]: 2090 nM
- IC50 [11]: 2680 nM
- IC50 [12]: 1270 nM
- IC50 [13]: 948 nM
- IC50 [14]: 3410 nM
- IC50 [15]: 1390 nM
- IC50 [16]: 1100 nM
- IC50 [17]: 501 nM
- IC50 [18]: 374 nM
- IC50 [19]: 138 nM
- IC50 [20]: 360 nM
- IC50 [21]: 134 nM
- IC50 [22]: 1030 nM
- IC50 [23]: 100 nM
- IC50 [24]: 2940 nM
- IC50 [25]: 20.5 nM
- IC50 [26]: 1520 nM
- IC50 [27]: 968 nM
- IC50 [28]: > 16 µM
- IC50 [29]: 638 nM
- IC50 [30]: 1780 nM
- IC50 [31]: > 16 µM
- IC50 [32]: 2940 nM
- IC50 [33]: 460 nM
- IC50 [34]: 1390 nM
- IC50 [35]: 790 nM
- IC50 [36]: 4190 nM
- IC50 [37]: 864 nM
- IC50 [38]: 587 nM
- IC50 [39]: 156 nM
- IC50 [40]: 1470 nM
- IC50 [41]: 1130 nM
- IC50 [42]: 1790 nM
- IC50 [43]: 1820 nM
- IC50 [44]: 8.61 µM
- IC50 [45]: 11.9 µM
- IC50 [46]: 223 nM
- IC50 [47]: 14.5 µM
- IC50 [48]: 689 nM
- IC50 [49]: 613 nM
- IC50 [50]: 1240 nM
- IC50 [51]: 926 nM
- IC50 [52]: 3630 nM
- IC50 [53]: 2680 nM
- IC50 [54]: 20.9 nM
- IC50 [55]: 161 nM
- IC50 [56]: 522 nM
- IC50 [57]: 891 nM
- IC50 [58]: 1150 nM
- IC50 [59]: 771 nM
- IC50 [60]: 1430 nM
- IC50 [61]: 5.08 µM
- IC50 [62]: > 16000 nM
- IC50 [63]: 547 nM
- IC50 [64]: 260 nM
- IC50 [65]: > 16 µM
- IC50 [66]: 184 nM
